In ChEMBL document CHEMBL1140940, “Pyrido[2,3-d]pyrimidin-5-ones: a novel class of antiinflammatory macrophage colony-stimulating factor-1 receptor inhibitors” (J Med Chem, 2009):

Key:
[1] = Metabolic stability in human liver microsomes after 10 mins; assay type: ADME, Microsome; settings: read-out: Stability
[2] = Metabolic stability in rat liver microsomes after 10 mins; assay type: ADME, Microsome; settings: read-out: Stability
[3] = target: Macrophage colony-stimulating factor 1 receptor (Homo sapiens, UniProt P07333)
Sequence of Macrophage colony-stimulating factor 1 receptor (P07333 whole entry): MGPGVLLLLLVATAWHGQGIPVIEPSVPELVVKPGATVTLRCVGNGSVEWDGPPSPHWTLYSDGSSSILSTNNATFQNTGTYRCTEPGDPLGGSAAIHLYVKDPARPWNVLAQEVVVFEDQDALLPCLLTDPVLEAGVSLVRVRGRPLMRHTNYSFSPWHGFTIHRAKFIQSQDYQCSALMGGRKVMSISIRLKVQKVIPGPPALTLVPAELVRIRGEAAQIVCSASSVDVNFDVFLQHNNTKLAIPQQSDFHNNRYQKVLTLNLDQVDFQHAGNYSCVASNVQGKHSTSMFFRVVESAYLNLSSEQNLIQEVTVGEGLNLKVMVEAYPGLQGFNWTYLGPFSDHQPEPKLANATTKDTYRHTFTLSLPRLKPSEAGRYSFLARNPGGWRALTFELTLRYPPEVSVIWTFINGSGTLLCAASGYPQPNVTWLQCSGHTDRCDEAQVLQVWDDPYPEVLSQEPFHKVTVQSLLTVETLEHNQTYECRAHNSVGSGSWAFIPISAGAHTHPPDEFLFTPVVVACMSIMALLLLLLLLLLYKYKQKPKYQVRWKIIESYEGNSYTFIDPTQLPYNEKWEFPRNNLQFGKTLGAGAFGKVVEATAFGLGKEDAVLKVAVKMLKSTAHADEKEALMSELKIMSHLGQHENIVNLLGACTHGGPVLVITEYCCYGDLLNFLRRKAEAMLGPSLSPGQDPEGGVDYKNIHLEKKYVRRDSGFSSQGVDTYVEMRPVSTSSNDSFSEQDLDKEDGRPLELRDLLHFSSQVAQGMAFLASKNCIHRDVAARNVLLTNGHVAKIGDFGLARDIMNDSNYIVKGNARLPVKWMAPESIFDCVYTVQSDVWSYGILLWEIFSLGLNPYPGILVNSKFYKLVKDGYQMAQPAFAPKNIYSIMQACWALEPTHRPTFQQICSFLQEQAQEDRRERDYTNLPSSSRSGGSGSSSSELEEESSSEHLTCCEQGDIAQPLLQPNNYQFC

[4] = Clearance in Sprague-Dawley rat at 2 mg/kg, iv; assay type: ADME, organism-based; parameters: dose 2 mg/kg, route intravenous; settings: in vivo
[5] = target: High affinity nerve growth factor receptor (Homo sapiens, UniProt P04629); test: Inhibition of TrkA by fluorescence polarization competition immunoassay
Sequence of High affinity nerve growth factor receptor (P04629 whole entry): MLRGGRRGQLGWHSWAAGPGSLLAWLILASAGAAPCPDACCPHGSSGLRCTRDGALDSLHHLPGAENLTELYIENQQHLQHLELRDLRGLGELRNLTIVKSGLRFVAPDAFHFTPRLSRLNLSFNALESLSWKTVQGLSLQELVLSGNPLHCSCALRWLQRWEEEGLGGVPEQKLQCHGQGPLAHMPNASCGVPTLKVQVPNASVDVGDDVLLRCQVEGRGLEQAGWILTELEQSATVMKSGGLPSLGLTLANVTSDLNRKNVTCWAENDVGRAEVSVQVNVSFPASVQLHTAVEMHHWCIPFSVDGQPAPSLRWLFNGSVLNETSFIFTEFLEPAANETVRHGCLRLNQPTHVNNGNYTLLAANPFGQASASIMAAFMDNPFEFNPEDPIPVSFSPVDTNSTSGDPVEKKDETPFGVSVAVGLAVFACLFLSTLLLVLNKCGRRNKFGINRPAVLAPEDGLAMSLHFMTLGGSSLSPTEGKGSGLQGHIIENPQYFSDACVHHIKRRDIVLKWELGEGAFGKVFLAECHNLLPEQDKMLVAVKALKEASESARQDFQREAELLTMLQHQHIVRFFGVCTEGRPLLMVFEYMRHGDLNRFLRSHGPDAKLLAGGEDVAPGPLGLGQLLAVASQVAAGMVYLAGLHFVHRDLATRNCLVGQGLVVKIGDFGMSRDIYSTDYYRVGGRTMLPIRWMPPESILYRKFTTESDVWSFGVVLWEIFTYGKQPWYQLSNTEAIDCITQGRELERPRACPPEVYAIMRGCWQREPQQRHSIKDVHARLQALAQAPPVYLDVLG

[6] = target: Proto-oncogene tyrosine-protein kinase Src (Homo sapiens, UniProt P12931); test: Inhibition of Src by fluorescence polarization competition immunoassay
Sequence of Proto-oncogene tyrosine-protein kinase Src (P12931 2-536 limits assumed): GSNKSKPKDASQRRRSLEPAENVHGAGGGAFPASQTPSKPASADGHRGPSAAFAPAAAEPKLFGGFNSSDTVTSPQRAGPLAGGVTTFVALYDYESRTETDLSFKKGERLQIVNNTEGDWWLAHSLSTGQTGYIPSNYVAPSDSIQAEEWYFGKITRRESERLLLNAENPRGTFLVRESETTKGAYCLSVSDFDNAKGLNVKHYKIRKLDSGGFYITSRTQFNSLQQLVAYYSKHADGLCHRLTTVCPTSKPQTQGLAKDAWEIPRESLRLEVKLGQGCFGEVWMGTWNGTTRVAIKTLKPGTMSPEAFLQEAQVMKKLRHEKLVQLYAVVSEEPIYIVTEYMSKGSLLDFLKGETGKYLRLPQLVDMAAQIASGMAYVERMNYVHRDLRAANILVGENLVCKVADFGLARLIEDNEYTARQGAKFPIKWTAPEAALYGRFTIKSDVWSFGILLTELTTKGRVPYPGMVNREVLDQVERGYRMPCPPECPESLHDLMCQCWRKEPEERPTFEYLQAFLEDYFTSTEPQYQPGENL

[7] = target: Mast/stem cell growth factor receptor Kit (Homo sapiens, UniProt P10721); test: Inhibition of KIT by fluorescence polarization competition immunoassay
Sequence of Mast/stem cell growth factor receptor Kit (P10721 whole entry): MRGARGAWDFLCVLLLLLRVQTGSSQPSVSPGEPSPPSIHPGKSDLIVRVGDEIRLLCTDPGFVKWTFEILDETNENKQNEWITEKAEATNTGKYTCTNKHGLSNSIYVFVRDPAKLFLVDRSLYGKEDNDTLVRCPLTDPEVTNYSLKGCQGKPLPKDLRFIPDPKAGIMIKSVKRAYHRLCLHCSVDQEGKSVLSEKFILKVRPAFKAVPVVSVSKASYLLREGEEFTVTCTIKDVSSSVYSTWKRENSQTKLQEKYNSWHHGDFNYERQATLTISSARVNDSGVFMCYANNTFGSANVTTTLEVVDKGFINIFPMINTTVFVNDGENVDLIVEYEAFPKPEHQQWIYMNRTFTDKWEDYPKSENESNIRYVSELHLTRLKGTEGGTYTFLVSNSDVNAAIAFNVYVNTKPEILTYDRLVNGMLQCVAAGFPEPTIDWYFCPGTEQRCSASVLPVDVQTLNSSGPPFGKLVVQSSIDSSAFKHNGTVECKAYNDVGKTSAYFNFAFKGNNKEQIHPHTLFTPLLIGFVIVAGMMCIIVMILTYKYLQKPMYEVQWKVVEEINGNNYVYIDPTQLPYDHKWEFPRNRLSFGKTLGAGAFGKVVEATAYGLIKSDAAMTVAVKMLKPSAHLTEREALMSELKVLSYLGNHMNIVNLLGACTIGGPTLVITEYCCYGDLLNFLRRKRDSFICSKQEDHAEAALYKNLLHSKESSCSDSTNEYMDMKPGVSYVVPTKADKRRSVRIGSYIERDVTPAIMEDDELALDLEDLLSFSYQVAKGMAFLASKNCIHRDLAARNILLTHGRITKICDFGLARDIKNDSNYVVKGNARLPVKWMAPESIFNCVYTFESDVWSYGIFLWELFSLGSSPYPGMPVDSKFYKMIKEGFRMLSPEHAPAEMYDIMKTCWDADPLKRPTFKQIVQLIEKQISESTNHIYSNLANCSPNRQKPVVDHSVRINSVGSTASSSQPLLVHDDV

[8] = target: Insulin receptor (Homo sapiens, UniProt P06213); test: Inhibition of IRKbeta by fluorescence polarization competition immunoassay
Sequence of Insulin receptor (P06213 28-758 limits assumed): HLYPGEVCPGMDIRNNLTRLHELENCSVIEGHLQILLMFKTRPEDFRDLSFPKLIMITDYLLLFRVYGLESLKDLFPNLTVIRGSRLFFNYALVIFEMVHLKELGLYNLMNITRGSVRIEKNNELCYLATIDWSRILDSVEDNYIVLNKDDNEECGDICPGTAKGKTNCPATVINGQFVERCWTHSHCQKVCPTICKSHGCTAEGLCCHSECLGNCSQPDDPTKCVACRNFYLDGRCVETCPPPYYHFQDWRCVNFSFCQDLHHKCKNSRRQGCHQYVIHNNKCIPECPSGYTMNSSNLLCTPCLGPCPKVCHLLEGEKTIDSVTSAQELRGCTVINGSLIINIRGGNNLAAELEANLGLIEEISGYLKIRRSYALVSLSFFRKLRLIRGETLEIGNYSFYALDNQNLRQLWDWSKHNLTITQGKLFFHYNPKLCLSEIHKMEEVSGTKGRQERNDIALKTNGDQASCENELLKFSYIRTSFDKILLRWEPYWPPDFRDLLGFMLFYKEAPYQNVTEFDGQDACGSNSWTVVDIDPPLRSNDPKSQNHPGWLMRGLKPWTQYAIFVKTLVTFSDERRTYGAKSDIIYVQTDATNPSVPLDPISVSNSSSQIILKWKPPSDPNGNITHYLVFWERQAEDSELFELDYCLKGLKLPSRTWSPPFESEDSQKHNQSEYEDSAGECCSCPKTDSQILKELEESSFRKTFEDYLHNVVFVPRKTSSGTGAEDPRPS
Sequence of Insulin receptor (P06213 763-1382 limits assumed): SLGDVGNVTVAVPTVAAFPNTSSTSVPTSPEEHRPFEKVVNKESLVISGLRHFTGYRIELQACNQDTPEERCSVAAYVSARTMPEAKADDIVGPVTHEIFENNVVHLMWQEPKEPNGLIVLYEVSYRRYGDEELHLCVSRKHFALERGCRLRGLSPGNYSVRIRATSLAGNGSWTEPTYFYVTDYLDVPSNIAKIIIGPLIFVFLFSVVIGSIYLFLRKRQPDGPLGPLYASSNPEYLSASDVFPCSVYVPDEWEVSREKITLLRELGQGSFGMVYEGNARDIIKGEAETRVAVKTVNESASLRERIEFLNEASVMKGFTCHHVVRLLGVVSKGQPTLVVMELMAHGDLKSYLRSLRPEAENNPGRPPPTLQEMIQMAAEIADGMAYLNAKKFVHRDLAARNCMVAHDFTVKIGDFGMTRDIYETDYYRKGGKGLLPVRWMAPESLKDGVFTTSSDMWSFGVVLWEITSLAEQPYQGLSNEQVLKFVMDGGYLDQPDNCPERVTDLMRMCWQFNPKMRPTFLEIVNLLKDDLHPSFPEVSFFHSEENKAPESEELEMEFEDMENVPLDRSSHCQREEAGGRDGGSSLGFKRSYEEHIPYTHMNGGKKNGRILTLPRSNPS

[9] = Oral bioavailability in Sprague-Dawley rat at 10 mg/kg; assay type: ADME, organism-based; settings: in vivo
[10] = target: T1, Receptor-type tyrosine-protein kinase FLT3 (Homo sapiens, UniProt P36888); test: Inhibition of FLT3 by fluorescence polarization competition immunoassay
T1 sequence (P36888 whole entry): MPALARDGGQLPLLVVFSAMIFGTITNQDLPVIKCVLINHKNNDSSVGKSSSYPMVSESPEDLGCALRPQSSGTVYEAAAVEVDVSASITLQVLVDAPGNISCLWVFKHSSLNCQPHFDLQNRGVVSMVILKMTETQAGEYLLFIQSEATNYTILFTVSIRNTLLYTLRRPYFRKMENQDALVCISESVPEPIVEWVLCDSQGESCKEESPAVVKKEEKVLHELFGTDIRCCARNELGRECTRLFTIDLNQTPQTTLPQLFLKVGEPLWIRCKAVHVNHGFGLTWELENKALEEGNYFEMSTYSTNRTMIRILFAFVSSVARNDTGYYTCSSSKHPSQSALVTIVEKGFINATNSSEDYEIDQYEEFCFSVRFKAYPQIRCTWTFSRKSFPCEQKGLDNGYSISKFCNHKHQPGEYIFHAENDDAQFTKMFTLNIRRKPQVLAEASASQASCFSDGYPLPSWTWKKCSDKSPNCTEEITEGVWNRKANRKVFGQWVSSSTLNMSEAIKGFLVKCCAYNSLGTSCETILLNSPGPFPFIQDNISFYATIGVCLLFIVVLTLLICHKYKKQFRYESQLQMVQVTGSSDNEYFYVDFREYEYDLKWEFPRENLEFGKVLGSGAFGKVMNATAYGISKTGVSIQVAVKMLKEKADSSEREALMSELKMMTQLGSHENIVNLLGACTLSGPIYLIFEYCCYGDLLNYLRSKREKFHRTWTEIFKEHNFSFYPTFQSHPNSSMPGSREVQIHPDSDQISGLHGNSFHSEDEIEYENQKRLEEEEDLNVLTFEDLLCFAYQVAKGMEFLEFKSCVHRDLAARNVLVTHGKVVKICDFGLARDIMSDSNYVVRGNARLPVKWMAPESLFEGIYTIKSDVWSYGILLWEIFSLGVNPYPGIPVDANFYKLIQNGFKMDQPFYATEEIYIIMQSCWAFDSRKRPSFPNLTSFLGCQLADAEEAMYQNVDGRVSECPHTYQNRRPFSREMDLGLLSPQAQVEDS

[11] = Half life in Sprague-Dawley rat at 2 mg/kg, iv; assay type: ADME, organism-based; parameters: dose 2 mg/kg, route intravenous; settings: in vivo
[12] = target: T2, Tyrosine-protein kinase receptor UFO (Homo sapiens, UniProt P30530); test: Inhibition of Axl by fluorescence polarization competition immunoassay
T2 sequence (P30530 whole entry): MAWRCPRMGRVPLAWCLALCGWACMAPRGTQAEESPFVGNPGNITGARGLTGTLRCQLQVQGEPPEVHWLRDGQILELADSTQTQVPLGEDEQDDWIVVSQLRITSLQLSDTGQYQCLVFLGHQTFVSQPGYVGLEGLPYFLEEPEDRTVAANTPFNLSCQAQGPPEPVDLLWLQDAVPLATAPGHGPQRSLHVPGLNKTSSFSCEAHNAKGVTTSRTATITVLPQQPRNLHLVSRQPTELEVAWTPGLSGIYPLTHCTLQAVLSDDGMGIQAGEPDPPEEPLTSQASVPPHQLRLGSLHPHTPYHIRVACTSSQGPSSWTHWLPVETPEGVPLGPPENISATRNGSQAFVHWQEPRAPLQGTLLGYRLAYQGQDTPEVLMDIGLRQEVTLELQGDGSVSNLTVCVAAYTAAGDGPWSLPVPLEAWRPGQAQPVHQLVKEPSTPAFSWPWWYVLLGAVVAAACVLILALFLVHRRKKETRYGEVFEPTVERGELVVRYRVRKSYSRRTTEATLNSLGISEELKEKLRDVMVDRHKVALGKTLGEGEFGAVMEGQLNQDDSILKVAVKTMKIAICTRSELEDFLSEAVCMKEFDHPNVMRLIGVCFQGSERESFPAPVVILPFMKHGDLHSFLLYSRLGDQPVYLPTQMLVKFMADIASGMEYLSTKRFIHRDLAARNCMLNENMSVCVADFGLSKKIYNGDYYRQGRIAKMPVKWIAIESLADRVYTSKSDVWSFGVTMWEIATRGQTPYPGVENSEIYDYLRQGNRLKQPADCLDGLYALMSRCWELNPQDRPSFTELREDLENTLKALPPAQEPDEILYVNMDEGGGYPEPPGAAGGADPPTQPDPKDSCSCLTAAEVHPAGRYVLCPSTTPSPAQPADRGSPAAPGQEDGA

[13] = Volume of distribution at steady state in Sprague-Dawley rat at 2 mg/kg, iv; assay type: ADME, organism-based; parameters: dose 2 mg/kg, route intravenous; settings: in vivo, read-out: Vdss
[14] = target: Platelet-derived growth factor receptor beta (Homo sapiens, UniProt P09619); test: Inhibition of PDGFRbeta by fluorescence polarization competition immunoassay
[15] = organism: Rattus norvegicus; test: Toxicity in rat assessed as induction of cold body; assay type: organism-based; settings: in vivo
[16] = Half life in Sprague-Dawley rat at 10 mg/kg, po; assay type: ADME, organism-based; parameters: dose 10 mg/kg, route oral; settings: in vivo
[17] = organism: Rattus norvegicus; test: Toxicity in rat assessed as induction of weight loss; assay type: organism-based; settings: in vivo
[18] = organism: Rattus norvegicus; test: Toxicity in rat assessed as induction of mucoid feces; assay type: organism-based; settings: in vivo
[19] = Cmax in Sprague-Dawley rat at 10 mg/kg, po; assay type: ADME, organism-based; parameters: dose 10 mg/kg, route oral; settings: in vivo

SMILES	remaining at 10 min [1] [%]	remaining at 10 min [2] [%]	IC50 [3] [nM]	clearance [4] [mL/min/kg]	bioavailability [9] [%]	half-life [11] [h]	Vd [13] [L/kg]	also measured
CONC(=O)c1cn(-c2ccc3c(c2)CCC3)c2nc(Nc3ccc(CCN4CCN(C)C(=O)C4)cc3)ncc2c1=O	2.8	29	0.8	–	–	–	–	–
CN1CCN(CCc2ccc(Nc3ncc4c(=O)c(C(=O)NCCO)cn(-c5ccc6c(c5)CCC6)c4n3)cc2)CC1	–	84	0.7	–	–	–	–	–
CONC(=O)c1cn(C2CCCCC2)c2nc(Nc3ccc(C4CCN(C)CC4)cc3)ncc2c1=O	96	68	5	–	–	–	–	–
CONC(=O)c1cn(-c2ccc3c(c2)CCC3)c2nc(Nc3ccc(C4CCN(CC(=O)O)CC4)cc3)ncc2c1=O	100	99	–	38	0	1.7	5.1	IC50 [5]: > 500 nM; IC50 [6]: 930 nM; IC50 [7]: 13 nM; IC50 [8]: 9300 nM; IC50 [10]: 41 nM; IC50 [12]: > 500 nM; IC50 [14]: > 2000 nM
CCONC(=O)c1cn(-c2ccc3c(c2)CCC3)c2nc(Nc3ccc(CCN4CCN(C)CC4)cc3)ncc2c1=O	–	84	–	–	–	–	–	–
CN1CCN(CCc2ccc(Nc3ncc4c(=O)c(C(N)=O)cn(-c5ccc6c(c5)CCC6)c4n3)cc2)CC1	–	96	–	25	0	7	15.5	IC50 [5]: 170 nM; IC50 [6]: 5900 nM; IC50 [7]: 20 nM; IC50 [8]: > 42000 nM; IC50 [10]: 1 nM; IC50 [12]: > 500 nM; IC50 [14]: > 42000 nM
CCc1ccc(-n2cc(C(=O)NOC)c(=O)c3cnc(Nc4ccc(C5CCN(C)CC5)cc4)nc32)cc1	75	96	–	8	103	8	5.9	Activity [15]: Non-toxic; half-life [16]: 8.1 h; Activity [17]: Non-toxic; Activity [18]: Non-toxic; Cmax [19]: 3400 nM
CONC(=O)c1cn(-c2ccc3c(c2)CCC3)c2nc(Nc3ccc(C4CCN(C)CC4(F)F)cc3)ncc2c1=O (centres undefined)	16	44	0.7	–	–	–	–	–
CNC(=O)c1cn(-c2ccc3c(c2)CCC3)c2nc(Nc3ccc(CCN4CCN(C)CC4)cc3)ncc2c1=O	–	73	1.2	–	–	–	–	–
CCc1cccc(-n2cc(C(=O)NOC)c(=O)c3cnc(Nc4ccc(C5CCN(C)CC5)cc4)nc32)c1	–	–	0.4	–	–	–	–	–
CONC(=O)c1cn(-c2ccc3c(c2)CCC3)c2nc(NCc3ccccc3)ncc2c1=O	–	–	75	–	–	–	–	–
CONC(=O)c1cn(-c2ccc3c(c2)CCC3)c2nc(Nc3ccc(CCN4CCNC(=O)C4)cc3)ncc2c1=O	35	69	–	10	3	6	0.8	half-life [16]: 9.7 h; Cmax [19]: 80 nM
CONC(=O)c1cn(-c2ccc3c(c2)CCC3)c2nc(Nc3ccc(C4CCN(CCO)CC4)cc3)ncc2c1=O	80	100	–	34	8	3	8.8	Cmax [19]: 130 nM
CONC(=O)c1cn(-c2ccc3c(c2)CCC3)c2nc(Nc3ccc(OC)nc3)ncc2c1=O	–	–	5.2	–	–	–	–	–
CONC(=O)c1cn(-c2ccc3c(c2)CCC3)c2nc(Nc3ccc(CCS(=O)(=O)NC(C)=O)cc3)ncc2c1=O	84	83	–	–	–	–	–	–
CCN1CCCC(O)(c2cccc(Nc3ncc4c(=O)c(C(=O)NOC)cn(-c5ccc6c(c5)CCC6)c4n3)c2)C1 (centres undefined)	88	89	–	20.4	28	5.2	5.6	Cmax [19]: 400 nM
CONC(=O)c1cn(-c2ccc3c(c2)CCC3)c2nc(Nc3ccc(CCN4CCC(F)(F)CC4)cc3)ncc2c1=O	83	86	–	–	–	–	–	–
CNC(=O)c1cn(-c2ccc3c(c2)CCC3)c2nc(Nc3ccc(CCN4CCOCC4)cc3)ncc2c1=O	–	100	1.4	47	4	0.7	2.6	half-life [16]: 1.8 h; Cmax [19]: 130 nM
CONC(=O)c1cn(-c2ccc3c(c2)CCC3)c2nc(Nc3ccc(CCN4CCOCC4)cc3)ncc2c1=O	5.4	24	–	–	–	–	–	–
CONC(=O)c1cn(-c2ccc3c(c2)CCC3)c2nc(Nc3ccc(CCN4CCN(C)CC4)cc3)ncc2c1=O	–	78	0.7	4	57	4.5	1.5	half-life [16]: 6.5 h; IC50 [5]: > 500 nM; IC50 [6]: 1500 nM; IC50 [7]: 6 nM; IC50 [8]: 19800 nM; IC50 [10]: 36 nM; IC50 [12]: > 500 nM; Cmax [19]: 2700 nM; IC50 [14]: 5300 nM
CN1CCN(c2ccc(Nc3ncc4c(=O)c(C(N)=O)cn(-c5ccc6c(c5)CCC6)c4n3)cc2)CC1	–	–	–	–	0	–	–	–
CC(C)ONC(=O)c1cn(-c2ccc3c(c2)CCC3)c2nc(Nc3ccc(CCN4CCN(C)CC4)cc3)ncc2c1=O	–	100	0.5	–	–	–	–	–
CONC(=O)c1cn(C2CCC(C)(C)CC2)c2nc(Nc3ccc(C4CCN(C)CC4)cc3)ncc2c1=O	93	97	–	–	–	–	–	–
CCNC(=O)c1cn(-c2ccc3c(c2)CCC3)c2nc(Nc3ccc(CCN4CCN(C)CC4)cc3)ncc2c1=O	–	–	3.2	–	–	–	–	–
CONC(=O)c1cn(-c2ccc3c(c2)CCC3)c2nc(Nc3ccc(C4CCNCC4)cc3)ncc2c1=O	97	93	0.5	–	–	–	–	–
CCCCNc1ncc2c(=O)c(C(=O)NOC)cn(-c3ccc4c(c3)CCC4)c2n1	–	–	15	–	–	–	–	–
